# Measured values taken from paper PMC3034978 (Biopharmaceutics & drug disposition, 2010).
# Where two headings read alike, the source gives them in different places. Marks after values point to notes of the source that are not given here.
# Key:
# [1] = system: BME-UV cells
# [2] = system: BME-UV monolayer; assay: Mannitol flux across BME-UV monolayer from Ap-to-BL side; format: in vitro ADME, bovine; details: for Effect on flux of mannitol across BME-UV monolayer (monolayer integrity): 200 ng/ml TNF-α
# [3] = system: bABCB1 mRNA; assay: bABCB1 mRNA expression by quantitative real-time RT-PCR in BME-UV cells; format: cell-based, bovine; details: 200 ng/ml TNF-α, 24 hours exposure, vs unexposed cells
# [4] = biological target: P-glycoprotein (Bos taurus, UniProt A0A3Q1MB23); assay: Ap-to-BL flux of digoxin; format: in vitro ADME, bovine; details: TNF-α 200 ng/ml, 24 hours exposure; 0.05 μM [3H]-digoxin
# Chain of P-glycoprotein (Bos taurus, UniProt A0A3Q1MB23) (A0A3Q1MB23 1-1267): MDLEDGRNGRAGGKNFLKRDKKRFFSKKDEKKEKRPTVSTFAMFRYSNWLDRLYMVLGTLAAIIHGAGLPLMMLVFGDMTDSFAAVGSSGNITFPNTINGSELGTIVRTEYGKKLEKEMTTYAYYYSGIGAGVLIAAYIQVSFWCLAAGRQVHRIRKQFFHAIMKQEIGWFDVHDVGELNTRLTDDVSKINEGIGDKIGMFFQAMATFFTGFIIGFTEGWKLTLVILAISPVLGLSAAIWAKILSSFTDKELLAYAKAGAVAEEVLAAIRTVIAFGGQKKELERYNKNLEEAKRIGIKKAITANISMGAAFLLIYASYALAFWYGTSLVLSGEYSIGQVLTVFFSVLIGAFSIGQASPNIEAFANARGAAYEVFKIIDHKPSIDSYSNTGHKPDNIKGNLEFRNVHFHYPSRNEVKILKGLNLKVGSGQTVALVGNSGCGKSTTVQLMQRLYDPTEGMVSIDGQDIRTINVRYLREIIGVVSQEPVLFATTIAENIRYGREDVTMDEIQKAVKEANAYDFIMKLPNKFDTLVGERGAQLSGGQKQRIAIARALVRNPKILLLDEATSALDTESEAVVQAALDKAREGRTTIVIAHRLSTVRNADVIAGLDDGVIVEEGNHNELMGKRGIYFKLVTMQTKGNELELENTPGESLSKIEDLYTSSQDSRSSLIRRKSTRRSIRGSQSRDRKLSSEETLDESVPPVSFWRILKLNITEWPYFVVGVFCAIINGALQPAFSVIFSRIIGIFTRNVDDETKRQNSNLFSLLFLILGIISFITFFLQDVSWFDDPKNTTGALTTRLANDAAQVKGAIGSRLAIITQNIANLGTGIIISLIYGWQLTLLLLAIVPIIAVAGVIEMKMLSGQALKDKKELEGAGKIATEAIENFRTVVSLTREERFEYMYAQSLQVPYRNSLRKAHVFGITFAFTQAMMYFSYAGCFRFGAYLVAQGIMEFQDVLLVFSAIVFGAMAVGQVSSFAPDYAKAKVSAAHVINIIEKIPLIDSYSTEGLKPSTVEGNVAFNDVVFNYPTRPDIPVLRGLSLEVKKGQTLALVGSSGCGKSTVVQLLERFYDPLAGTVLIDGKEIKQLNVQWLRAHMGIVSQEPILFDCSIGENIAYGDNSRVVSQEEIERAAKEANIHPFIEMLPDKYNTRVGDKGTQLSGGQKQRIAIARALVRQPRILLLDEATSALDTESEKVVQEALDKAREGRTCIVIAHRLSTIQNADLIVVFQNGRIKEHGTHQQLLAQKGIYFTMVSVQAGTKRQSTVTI
# [5] = system: P-glycoprotein; assay: Western blot of P-glycoprotein immunoreactive bands in BME-UV cells; format: cell-based, bovine; details: TNF-α 200 ng/ml
# [6] = system: mammary epithelial monolayer (BME-UV); details: exposure to TNF-α for 8 hours; cited from earlier work
compound,measurement,setting,value
C[C@H]1O[C@@H](O[C@H]2[C@@H](O)C[C@H](O[C@H]3[C@@H](O)C[C@H](O[C@H]4CC[C@@]5(C)[C@H](CC[C@@H]6[C@@H]5C[C@@H](O)[C@]5(C)[C@@H](C7=CC(=O)OC7)CC[C@]65O)C4)O[C@@H]3C)O[C@@H]2C)C[C@H](O)[C@@H]1O [digoxin],Intracellular content of digoxin,[1]; BME-UV cells exposed to TNF-α for 24 hours,4.6 ± 1.1 × 10^−4 nmol
same,Intracellular content of digoxin,[1]; BME-UV cells exposed to TNF-α for 72 hrs,3.0 ± 0.2 × 10^−4 nmol
same,Intracellular content of digoxin,[1]; unexposed BME-UV cells,6.3 ± 2.6 × 10^−4 nmol
OC[C@@H](O)[C@@H](O)[C@H](O)[C@H](O)CO [mannitol],"Mannitol flux, Ap-to-BL",[2]; BME-UV exposed to TNF-α 200 ng/ml for 24 hr (TNF-24H),15.5 × 10^−3 ^b nmol/cm^2/hr
same,"Mannitol flux, Ap-to-BL",[2]; BME-UV exposed to TNF-α 200 ng/ml for 72 hr (TNF-72H),14.1 × 10^−3 ^b nmol/cm^2/hr
same,"Mannitol flux, Ap-to-BL",[2]; BME-UV exposed to TNF-α 200 ng/ml for 120 hr (TNF-120H),9.6 × 10^−3 ^a nmol/cm^2/hr
same,Flux value of mannitol,[2]; TNF-α exposed monolayers for 24 hours,15.5 ± 0.8 × 10^−6 μmol/cm^2 per hour
same,"Mannitol flux, Ap-to-BL","[2]; Untreated BME-UV monolayer, 2 μM [14C]-mannitol",6.5 × 10^−3 ^a nmol/cm^2/hr
same,Flux value of mannitol,[2]; unexposed monolayers,6.5 ± 0.7 × 10^−6 μmol/cm^2 per hour
TNF-α,Change in bABCB1 mRNA expression,[3],significant increase
same,Effect on flux of mannitol across BME-UV monolayer (monolayer integrity),[2]; 24 and 72 hours exposure,increased significantly
same,Effect on flux of mannitol across BME-UV monolayer (monolayer integrity),[2]; 120 hours exposure,indistinguishable from untreated
same,Change in Ap-to-BL flux of digoxin,[4],significantly decreased
same,Change in P-glycoprotein immunoreactive level,[5]; 24 hours exposure,significant increase
same,Change in P-glycoprotein immunoreactive level,[5]; 72 hours exposure,maximum observed effect
same,Change in P-glycoprotein immunoreactive level,"[5]; 120 hours exposure, lower than at 72 hours",increased significantly
same,Decrease in Rte value,[6],30%
